Data: the NIST ThermoML archive (doi:10.1021/je049609w)

How the values were obtained:
[1] = refractive index (Na D-line) (dimensionless); xn = mol fraction of the nth substance listed; settings: 101 kPa, Liquid
[2] = xn = mol fraction of the nth substance listed; settings: 101 kPa, Liquid

C1COCCO1 [1,4-dioxane] + CCCCO
Settings | mass density, 298.15 K [kg/m3] | mass density, 303.15 K [kg/m3] | mass density, 308.15 K [kg/m3] | refractive index, 298.15 K | refractive index, 303.15 K | refractive index, 308.15 K | speed of sound, 298.15 K [m/s] | viscosity, 298.15 K [mPa·s] | viscosity, 303.15 K [mPa·s] | viscosity, 308.15 K [mPa·s]
[1], x1 = 0.1014 | – | – | – | 1.3999 | 1.3976 | 1.3952 | – | – | – | –
[1], x1 = 0.2015 | – | – | – | 1.4016 | 1.3992 | 1.3968 | – | – | – | –
[1], x1 = 0.2982 | – | – | – | 1.4032 | 1.4008 | 1.3984 | – | – | – | –
[1], x1 = 0.3995 | – | – | – | 1.4052 | 1.4028 | 1.4003 | – | – | – | –
[1], x1 = 0.4945 | – | – | – | 1.4071 | 1.4046 | 1.4022 | – | – | – | –
[1], x1 = 0.5993 | – | – | – | 1.4095 | 1.4069 | 1.4044 | – | – | – | –
[1], x1 = 0.7023 | – | – | – | 1.4119 | 1.4094 | 1.4068 | – | – | – | –
[1], x1 = 0.802 | – | – | – | 1.4145 | 1.4118 | 1.4093 | – | – | – | –
[1], x1 = 0.9017 | – | – | – | 1.4172 | 1.4145 | 1.4118 | – | – | – | –
[1], x1 = 1 | – | – | – | 1.4203 | 1.4164 | 1.4145 | – | – | – | –
[2], x1 = 0.1014 | 826.1 | 822.1 | 818.1 | – | – | – | 1249 | 2.15 | 1.926 | 1.703
[2], x1 = 0.2015 | 846.7 | 842.4 | 838.1 | – | – | – | 1260 | 1.757 | 1.602 | 1.447
[2], x1 = 0.2982 | 866.9 | 862.4 | 858 | – | – | – | 1270 | 1.489 | 1.347 | 1.204
[2], x1 = 0.3995 | 888.7 | 884 | 879.5 | – | – | – | 1281 | 1.327 | 1.196 | 1.066
[2], x1 = 0.4945 | 909.6 | 904.8 | 900.1 | – | – | – | 1291 | 1.241 | 1.13 | 1.03
[2], x1 = 0.5993 | 933.5 | 928.4 | 923.4 | – | – | – | 1301 | 1.177 | 1.081 | 0.985
[2], x1 = 0.7023 | 957.5 | 952.3 | 947.1 | – | – | – | 1310 | 1.153 | 1.063 | 0.972
[2], x1 = 0.802 | 981.1 | 975.8 | 970.4 | – | – | – | 1320 | 1.162 | 1.07 | 0.979
[2], x1 = 0.9017 | 1004.9 | 999.5 | 994 | – | – | – | 1332 | 1.17 | 1.078 | 0.986
[2], x1 = 1 | 1028.6 | 1022.9 | 1017.2 | – | – | – | 1345 | 1.196 | 1.095 | 1.008

CCCCO [butan-1-ol] + C1COCCO1
x2 = 0
Settings | mass density, 298.15 K [kg/m3] | mass density, 303.15 K [kg/m3] | mass density, 308.15 K [kg/m3] | refractive index, 298.15 K | refractive index, 303.15 K | refractive index, 308.15 K | speed of sound, 298.15 K [m/s] | viscosity, 298.15 K [mPa·s] | viscosity, 303.15 K [mPa·s] | viscosity, 308.15 K [mPa·s]
[1] | – | – | – | 1.3983 | 1.3955 | 1.3937 | – | – | – | –
[2] | 805.8 | 802 | 798 | – | – | – | 1237 | 2.564 | 2.245 | 1.981
